Data from PubChem BioAssay (NCI).
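Here, GI50 denotes the concentration required for 50% inhibition of growth. TGI marks complete inhibition of growth.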

Assays:
Test in all cases: DTP human tumour cell line panel, 384-well format
[1] = test system: A498 renal
[2] = test system: A549 NSCLC
[3] = test system: ACHN renal
[4] = test system: BT-549 breast
[5] = test system: CAKI-1 renal
[6] = test system: COLO 205 colon
[7] = test system: DU-145 prostate
[8] = test system: EKVX NSCLC
[9] = test system: HCC-2998 colon
[10] = test system: HCT-116 colon
[11] = test system: HCT-15 colon
[12] = test system: HL-60(TB) leukemia
[13] = test system: HOP-62 NSCLC
[14] = test system: HOP-92 NSCLC
[15] = test system: HS 578T breast
[16] = test system: HT29 colon
[17] = test system: IGROV1 ovarian
[18] = test system: KM12 colon
[19] = test system: LOX IMVI melanoma
[20] = test system: M14 melanoma
[21] = test system: MALME-3M melanoma
[22] = test system: MCF7 breast
[23] = test system: MDA-MB-231 breast
[24] = test system: MDA-MB-435 melanoma
[25] = test system: MDA-MB-468 breast
[26] = test system: MOLT-4 leukemia

Cn1cc(-c2[nH]c3cc(NC(=O)[C@H](N)C4CCCCC4)cc4c3c2C=NNC4=O)cn1
GI50 [1]: 91.6 nM | TGI [1]: 277 nM | GI50 [2]: 4.66 µM | TGI [2]: 17.3 µM | GI50 [3]: 314 nM | TGI [3]: 954 nM | GI50 [4]: 152 nM | TGI [4]: 362 nM | GI50 [5]: 531 nM | TGI [5]: 12.4 µM | GI50 [6]: 489 nM | TGI [6]: 1710 nM | GI50 [7]: 359 nM | TGI [7]: 12.4 µM | GI50 [8]: 538 nM | TGI [8]: 11.4 µM | GI50 [9]: 42 nM | TGI [9]: 227 nM | GI50 [10]: 427 nM | TGI [10]: 6.28 µM | GI50 [11]: 2720 nM | TGI [11]: 9.18 µM | GI50 [12]: 204 nM | TGI [12]: 353 nM | GI50 [13]: 203 nM | TGI [13]: 483 nM | GI50 [14]: 111 nM | TGI [14]: 5.43 µM | GI50 [15]: 191 nM | TGI [15]: 847 nM | GI50 [16]: 1030 nM | TGI [16]: 2580 nM | GI50 [17]: 275 nM | TGI [17]: 960 nM | GI50 [18]: 466 nM | TGI [18]: 8.76 µM | GI50 [19]: 312 nM | TGI [19]: 1060 nM | GI50 [20]: 195 nM | TGI [20]: 402 nM | GI50 [21]: 781 nM | TGI [21]: 17.4 µM | GI50 [22]: 176 nM | TGI [22]: 12.7 µM | GI50 [23]: 599 nM | TGI [23]: 9.62 µM | GI50 [24]: 166 nM | TGI [24]: 340 nM | GI50 [25]: 186 nM | TGI [25]: 426 nM | GI50 [26]: 201 nM | TGI [26]: 347 nM
